Where two headings read alike, the source gives them in different places.
Tests used:
Format in all cases: biochemical
[1] = target: T1, 20S proteasome β5 subunit (chymotrypsin-like activity) (Homo sapiens, UniProt P28074); assay: fluorometric ChT-L screening assay, % inhibition at […]; settings: read-out: ChT-L Activity (% Inhibition at 20 μM) ^1
T1 construct: gene PSMB5; whole human 20S proteasome (Biomol); with other subunits of the 20S proteasome
T1 sequence (P28074 60-263): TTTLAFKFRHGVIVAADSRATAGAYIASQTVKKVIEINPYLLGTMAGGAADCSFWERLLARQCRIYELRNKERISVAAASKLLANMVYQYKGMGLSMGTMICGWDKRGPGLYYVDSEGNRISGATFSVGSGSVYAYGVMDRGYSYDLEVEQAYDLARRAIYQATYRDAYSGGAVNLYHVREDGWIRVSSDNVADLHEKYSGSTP

[2] = target: T1, 20S proteasome β5 subunit (chymotrypsin-like activity); assay: fluorometric ChT-L assay with Suc-LLVY-AMC, continuous; IC50 […], Ki by Cheng-Prusoff
[3] = target: T1, 20S proteasome β5 subunit (chymotrypsin-like activity); assay: as above; remark: listed apart in the source

SMILES	inhibition at 20 µM [1] [%]	also measured
N#Cc1ccc(N2CC2(Cl)C(F)(F)F)cc1 (centres unmarked) [compound 18, CTMA 18]	37 ± 0.5	
FC(F)(F)C1(Cl)CN1c1ccc2cc3ccccc3cc2c1 (centres unmarked) [compound 21, CTMA 21]		Ki [2]: 1600 ± 130 nM
FC(F)(F)C1(Cl)CN1c1ccc(N=Nc2ccccc2)cc1 (centres unmarked) [compound 22, CTMA 22]		Ki [3]: 1600 ± 80 nM
FC(F)(F)C1(Cl)CN1c1ccc(N2CCOCC2)cc1 (centres unmarked) [compound 23, CTMA 23]	41 ± 1.2	
O=C1CCCN1c1cccc(N2CC2(Cl)C(F)(F)F)c1 (centres unmarked) [compound 25, CTMA 25]	34 ± 1.4	

— paper PMC9603864, “Novel Class of Proteasome Inhibitors: In Silico and In Vitro Evaluation of Diverse Chloro(trifluoromethyl)aziridines” (International Journal of Molecular Sciences, 2022)
